Reference: ChEMBL document CHEMBL1201862, “PubChem BioAssay data set” (2004)
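Step 1: Grow cells in 96-well plates. Step 2: Expose to compound for 48 hours at 5 concentrations. Step 3: Interpolate endpoints linearly; if unreached, use highest concentration. Here, GI50 denotes the concentration required for 50% inhibition of growth.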 Active and inactive are the calls of the source. No stated cut-off is given here; in the data, active = GI50 up to about 1.1 µM and inactive = higher.

Experiments:
Experiment in all cases: NCI anticancer screen, dose series, 48 h
[1] = test system: 786-0
[2] = test system: A498
[3] = test system: A549
[4] = test system: ACHN
[5] = test system: CAKI-1
[6] = test system: CCRF-CEM
[7] = test system: COLO 205
[8] = test system: DLD-1
[9] = test system: DMS-114
[10] = test system: DMS-273
[11] = test system: EKVX
[12] = test system: HCC 2998
[13] = test system: HCT-116
[14] = test system: HCT-15
[15] = test system: HL-60
[16] = test system: HOP-18
[17] = test system: HOP-62
[18] = test system: HOP-92
[19] = test system: HT-29
[20] = test system: IGROV-1
[21] = test system: K562
[22] = test system: KM-20L2
[23] = test system: KM12
[24] = test system: LOX IMVI
[25] = test system: LXFL 529
[26] = test system: M14
[27] = test system: M19-MEL
[28] = test system: MCF7
[29] = test system: MOLT-4
[30] = test system: Malme-3M
[31] = test system: NCI-H226
[32] = test system: NCI-H23
[33] = test system: NCI-H460
[34] = test system: NCI-H522
[35] = test system: NCI/ADR-RES
[36] = test system: OVCAR-3
[37] = test system: OVCAR-4
[38] = test system: OVCAR-5
[39] = test system: OVCAR-8
[40] = test system: RPMI-8226
[41] = test system: RXF 393
[42] = test system: RXF 631
[43] = test system: SF-268
[44] = test system: SF-295
[45] = test system: SF-539
[46] = test system: SK-MEL-28
[47] = test system: SK-MEL-2
[48] = test system: SK-MEL-5
[49] = test system: SK-OV-3
[50] = test system: SN12C
[51] = test system: SNB-19
[52] = test system: SNB-75
[53] = test system: SNB-78
[54] = test system: SR
[55] = test system: SW-620
[56] = test system: TK-10
[57] = test system: U-251
[58] = test system: UACC-257
[59] = test system: UACC-62
[60] = test system: UO-31
[61] = test system: XF498

NC1=NC(c2ccccc2)CC(c2cc(Cl)cc(Br)c2O)=N1 (centres undefined)
GI50 [1]: 16.9 µM (inactive) | GI50 [2]: 16.4 µM (inactive) | GI50 [3]: 14.6 µM (inactive) | GI50 [4]: 16.9 µM (inactive) | GI50 [5]: 13.3 µM (inactive) | GI50 [6]: 7.71 µM (inactive) | GI50 [7]: 13 µM (inactive) | GI50 [8]: 12 µM (inactive) | GI50 [9]: 8.69 µM (inactive) | GI50 [10]: 7.55 µM (inactive) | GI50 [11]: 10.1 µM (inactive) | GI50 [12]: 13.6 µM (inactive) | GI50 [13]: 12.1 µM (inactive) | GI50 [14]: 7.64 µM | GI50 [15]: 3.28 µM (inactive) | GI50 [16]: 17.7 µM (inactive) | GI50 [17]: 10.4 µM (inactive) | GI50 [18]: 18 µM (inactive) | GI50 [19]: 13.5 µM (inactive) | GI50 [20]: 14.5 µM (inactive) | GI50 [21]: 3 µM (inactive) | GI50 [22]: 15.7 µM (inactive) | GI50 [23]: 11 µM (inactive) | GI50 [24]: 12.7 µM (inactive) | GI50 [25]: 16.7 µM (inactive) | GI50 [26]: 14.7 µM (inactive) | GI50 [27]: 12.8 µM (inactive) | GI50 [28]: 2.44 µM (inactive) | GI50 [29]: 3.1 µM (inactive) | GI50 [30]: 4.55 µM (inactive) | GI50 [31]: 18.9 µM (inactive) | GI50 [32]: 10.8 µM (inactive) | GI50 [33]: 12.4 µM (inactive) | GI50 [34]: 3.79 µM (inactive) | GI50 [35]: 9.35 µM (inactive) | GI50 [36]: 15.8 µM (inactive) | GI50 [37]: 15.4 µM (inactive) | GI50 [38]: 19.6 µM (inactive) | GI50 [39]: 17.1 µM (inactive) | GI50 [40]: 7.31 µM (inactive) | GI50 [41]: 4.36 µM (inactive) | GI50 [42]: 17.5 µM (inactive) | GI50 [43]: 11.7 µM (inactive) | GI50 [44]: 10.9 µM (inactive) | GI50 [45]: 12.2 µM (inactive) | GI50 [46]: 13.1 µM (inactive) | GI50 [47]: 4.59 µM (inactive) | GI50 [48]: 11.7 µM (inactive) | GI50 [49]: 24.7 µM (inactive) | GI50 [50]: 13.4 µM (inactive) | GI50 [51]: 17 µM (inactive) | GI50 [52]: 14 µM (inactive) | GI50 [53]: 17.2 µM (inactive) | GI50 [54]: 6.43 µM (inactive) | GI50 [55]: 8.2 µM (inactive) | GI50 [56]: 18.8 µM (inactive) | GI50 [57]: 12.5 µM (inactive) | GI50 [58]: 14.7 µM (inactive) | GI50 [59]: 10.1 µM (inactive) | GI50 [60]: 16.4 µM (inactive) | GI50 [61]: 13.7 µM (inactive)

CN1CCCS/C1=C1/SC(=S)N(c2ccccc2)C1=O
GI50 [1]: > 100 µM (inactive) | GI50 [2]: > 100 µM (inactive) | GI50 [3]: > 100 µM (inactive) | GI50 [4]: > 100 µM (inactive) | GI50 [5]: > 100 µM (inactive) | GI50 [6]: > 100 µM (inactive) | GI50 [7]: > 100 µM (inactive) | GI50 [8]: > 100 µM (inactive) | GI50 [9]: > 100 µM (inactive) | GI50 [10]: > 100 µM (inactive) | GI50 [11]: > 100 µM (inactive) | GI50 [13]: > 100 µM (inactive) | GI50 [14]: > 100 µM | GI50 [15]: > 100 µM (inactive) | GI50 [16]: > 100 µM (inactive) | GI50 [17]: > 100 µM (inactive) | GI50 [18]: > 100 µM (inactive) | GI50 [19]: > 100 µM (inactive) | GI50 [20]: > 100 µM (inactive) | GI50 [21]: > 100 µM (inactive) | GI50 [22]: > 100 µM (inactive) | GI50 [23]: > 100 µM (inactive) | GI50 [24]: > 100 µM (inactive) | GI50 [25]: > 100 µM (inactive) | GI50 [26]: > 100 µM (inactive) | GI50 [27]: > 100 µM (inactive) | GI50 [29]: > 100 µM (inactive) | GI50 [30]: > 100 µM (inactive) | GI50 [31]: > 100 µM (inactive) | GI50 [32]: > 100 µM (inactive) | GI50 [33]: > 100 µM (inactive) | GI50 [34]: > 100 µM (inactive) | GI50 [36]: > 100 µM (inactive) | GI50 [37]: > 100 µM (inactive) | GI50 [38]: > 100 µM (inactive) | GI50 [39]: > 100 µM (inactive) | GI50 [40]: > 100 µM (inactive) | GI50 [41]: > 100 µM (inactive) | GI50 [42]: > 100 µM (inactive) | GI50 [43]: > 100 µM (inactive) | GI50 [44]: > 100 µM (inactive) | GI50 [45]: > 100 µM (inactive) | GI50 [46]: > 100 µM (inactive) | GI50 [47]: > 100 µM (inactive) | GI50 [48]: > 100 µM (inactive) | GI50 [49]: > 100 µM (inactive) | GI50 [50]: > 100 µM (inactive) | GI50 [51]: > 100 µM (inactive) | GI50 [52]: > 100 µM (inactive) | GI50 [53]: > 100 µM (inactive) | GI50 [54]: > 100 µM (inactive) | GI50 [55]: > 100 µM (inactive) | GI50 [56]: > 100 µM (inactive) | GI50 [57]: > 100 µM (inactive) | GI50 [58]: > 100 µM (inactive) | GI50 [59]: > 100 µM (inactive) | GI50 [60]: > 100 µM (inactive) | GI50 [61]: > 100 µM (inactive)
